Results from the supplement of paper PMC10949913.

What was measured:
[1] = tested on: CU-ACC1; assay: area under concentration-response curve (viability) (AUC (a.u.)); higher = less active; settings: 48 h
Outline: (§1)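 After 48 h of treatment with 23 nL of each library compound at 11 concentrations, three adrenocortical carcinoma cell lines in 1,536-well plates (500–1,000 cells/well, 5 µL medium) were given CellTiter-Glo for 15 minutes at room temperature. Luminescence was then read and normalised per plate to vehicle and empty-well controls. AC50 and area under the curve were drawn from fitted concentration-response curves of inhibitory or non-responding classes only.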

[2] = tested on: CU-ACC2; assay: as above; settings: 48 h
Outline: as §1

SMILES | area under concentration-response curve [1] | area under concentration-response curve [2]
N#Cc1ccc(NC(=O)Nc2ccccc2Br)c2nn[nH]c12 | 573 | 638
c1ccc2c(Cc3c[nH]c4ccccc34)c[nH]c2c1 | 505 | 574
CCCCc1ccc(N[S+](=O)([O-])c2ccc(C)c(C(=O)N3CCN(c4cccc(C)c4C)CC3)c2)cc1 | 527 | 634
COC1=C(CN(C)C)C=C(OC)C(=C1)C/2=C/N(C)C(=O)C3=C2C=CN=C3 | 516 | 597
CCCCCCCCCCCCCCCCOCCCO[P](O)(=O)COC(CO)CN1/C=C\C(=N/C1=O)N (configuration not stated) | 551 | 609
CC(=O)Nc1ccc(OC[C@](C)(O)C(=O)Nc2ccc([N+](=O)[O-])c(C(F)(F)F)c2)cc1 | 519 | 515
CNNCc1ccc(C(=O)NC(C)C)cc1 | 517 | 526
CO[C@@H]1COCC[C@@H]1N[C@@H]1CC[C@@](C(=O)N2CCc3ncc(C(F)(F)F)cc3C2)(C(C)C)C1 | 591 | 640
Cl.NC(CO)C(=O)NNCc1ccc(O)c(O)c1O (configuration not stated) | 562 | 627
COc1c(C)cc(NC(=O)c2nn(Cc3ccc(F)cc3)c3c2CN(C(=O)c2ccc[nH]2)C[C@]3(C)C(N)=O)cc1C | 567 | 646
O=C/1\C=C(/OC(=C1)/C2=C3SC4=C(SC3=CC=C2)C=CC=C4)N5CCOCC5 | 550 | 650
CN1C(=N)N[C@](C)(c2cc(NC(=O)c3ccc(F)cn3)ccc2F)C[S+]1(=O)[O-] | 563 | 611
NC(=O)c1ccc(I)c([N+](=O)[O-])c1 | 549 | 583
C[C@]12CC[C@@H]3c4ccc(O)cc4CC[C@H]3[C@@H]1C[C@@H](O)[C@@H]2O | 388 | 398
CN(Cc1cc(Br)cc(Br)c1N)C1CCCCC1 | 383 | 526
CCC\C1=C\C(=O)NC(=S)N1 | 467 | 545
O=C1CC(c2c[nH]c3ccc(F)cc23)C(=O)N1 (configuration not stated) | 465 | 424
CN(C)C(=N)NC(=N)N | 550 | 572
CCN(CC)C(=O)Cc1csc(N[S+](=O)([O-])c2cccc(Cl)c2C)n1 | 415 | 445
CN1C(=O)[C@@H](NC(=O)c2cc(Cc3ccccc3)on2)COc2ccccc21 | 361 | 325
CN1CCC(=C2c3ccccc3CC(=O)c3sccc32)CC1 | 557 | 537
F\C1=C\NC(=O)NC1=O | 483 | 505
Cn1cc(C[C@@H](N)C(=O)O)c2ccccc21 | 619 | 658
CC(C)(C)C1=NC2=C([NH]1)C3=CC=C(F)C=C3C4=C2\C=C/NC4=O | 494 | 500
C\C1=C\C(=O)OC2=C1C=CC(=C2)O | 473 | 552
CCCCCCOC(=O)/N=C(/N)c1ccc(NCc2nc3cc(C(=O)N(CCC(=O)OCC)c4ccccn4)ccc3n2C)cc1 | 523 | 594
